Data reported in patent US20110171174A1, “Synergistic Combinations of a Macrocyclic Inhibitor of HCV and a Nucleoside” (ORTHO-MCNEIL-JANSSEN PHARMACEUTICALS, INC., priority 2008, published 2011).

System: HCV replicon (Huh-7 luc/neo cells, NS3-NS5B regions of HCV type 1b)
Experiment: HCV replicon assay (Huh-Luc cells, luciferase read-out)
Format: cell-based
Conditions: Hepatitis C virus, Huh-7, 72 h, three days incubation, luciferase activity, read-out: average EC50 value in the HCV replicon test
From the text: The in vitro antiviral activity against HCV of the compound of formula I or of formula II can be tested in a cellular HCV replicon system based on Lohmann et al. (1999) Science 285:110-113, with the further modifications described by Krieger et al. (2001) Journal of Virology 75: 4614-4624 (incorporated herein by reference), which is further exemplified in the examples section. This model, while not a complete infection model for HCV, is widely accepted as the most robust and efficient model of autonomous HCV RNA replication currently available. The in vitro antiviral activity against HCV can also be tested by enzymatic tests.
The compounds of formula I were examined for activity in the inhibition of HCV RNA replication in a cellular assay. […] The cellular assay was based on a bicistronic expression construct, as described by Lohmann et al. (1999) Science vol. […]
The replicon cells were plated in 384 well plates in the presence of the test and control compounds which were added in various concentrations. Following an incubation of three days, HCV replication was measured by assaying luciferase activity (using standard luciferase assay substrates and reagents, and a Perkin Elmer ViewLux™ ultraHTS microplate imager). […] The inhibitory activity of the compound was monitored on the Huh-Luc cells, enabling a dose-response curve for each test compound. […]

SMILES	EC50 [nM]
COc1ccc2c(O[C@@H]3C[C@H]4C(=O)N[C@]5(C(=O)NS(=O)(=O)C6CC6)C[C@H]5C=CCCCCN(C)C(=O)[C@@H]4C3)cc(-c3nc(C(C)C)cs3)nc2c1C (stereo in doubt) [compound I, (1R,4R,6S,15R,17R)-cis-N-[17-[2-(4-isopropylthiazole-2-yl)-7-methoxy-8-methyl-quinolin-4-yloxy]-13-methyl-2,14-dioxo-3,13-diazatricyclo[13.3.0.0^4,6]octadec-7-ene-4-carbonyl](cyclopropyl)sulfonamide]	8
C[C@@H]1[C@H](n2ccc(N)nc2=O)O[C@@](CO)(N=[N+]=[N-])[C@H]1O [compound II, 4-amino-1-((2R,3 S,4S,5R)-5-azido-4-hydroxy-5-hydroxymethyl-3-methyltetrahydro-furan-2-yl)-1H-pyrimidin-2-one]	5000
